Test system: 3,6-L-AHG transferase
Assay: Quantitative analysis of 3,6-L-AHG with the final active fraction and NADP^+ (absorbance at 339 nm)
Type: biochemical, Saccharophagus degradans
Settings: 50 minute reaction, relative concentrations 1, 0.5, 0.25, 0.1 and 0.05 (1 = 20 mg/mL), FIG. 1
Procedure: 7.5 μl of the final active fraction obtained in Preparation Example 2, 0.1 mM of NADP^+, and 50 mM of Tris-HCl (pH 8.0) are mixed to prepare 100 μl of a composition for quantitative analysis of 3,6-L-AHG.
An amount of 3,6-L-AHG is added to various 100 μl samples of the composition for quantitative analysis of 3,6-L-AHG obtained in Preparation Example 4 to achieve dilution factors for the 3,6-L-AHG of 1, 0.5, 0.25, 0.1 and 0.05 in terms of relative concentrations. A relative 3,6-L-AHG concentration of 1 corresponds to 20 mg/mL. Reaction is carried out for 50 minutes, and then absorbance is measured at 339 nm using a microplate spectrophotometer (Bio-Tek Instruments, Inc.) according to the End-point UV method.

amount of NADPH produced versus amount of 3,6-L-AHG in the sample: linearly related
SMILES: O=C[C@@H](O)[C@@H]1OC[C@H](O)[C@H]1O [3,6-L-AHG, 3,6-anhydro-L-galactose]
